These results are taken from patent US6921770B2 (priority 2000, dated 2005).

In the first assay the test system is rice blast fungi. Format: in vivo, Pyricularia grisea.
Settings: not given
Consider `Br.COc1ccc(NC(=O)Cc2csc(=Nc3ccc(C)cc3)n2C)cc1` [Compound 309, 2-(4-methylphenylimino)-3-methyl-4-[N-(4-methoxyphenyl)carbamoylmethyl]-1,3-thiazol-4-ine hydrobromide], for which the “Inhibiting Ratio (%) (at 250 ppm)” value came out at 100%.

As for `Br.Cc1ccc(NC(=O)Cc2csc(=Nc3ccc(C(F)(F)F)cc3)n2C)cc1` [Compound 14, 2-(4-trifluoromethylphenylimino)-3-methyl-4-[N-(4-methylphenyl)carbamoylmethyl]-1,3-thiazol-4-ine hydrobromide], the “Inhibiting Ratio (%) (at 250 ppm)” value worked out at 99%.

`Br.Cn1c(CC(=O)Nc2ccccc2)csc1=Nc1ccc(Cl)c(C(F)(F)F)c1` [Compound 37, 2-(4-chloro-3-trifluoromethylphenylimino)-3-methyl-4-(N-phenylcarbamoylmethyl)-1,3-thiazol-4-ine hydrobromide]: the “Inhibiting Ratio (%) (at 250 ppm)” value turned out to be 100%. Still for that read-out and setting: then `Br.Cn1c(CC(=O)Nc2cccc(Cl)c2)csc1=Nc1cccc(F)c1` [Compound 59, 2-(3-fluorophenylimino)-3-methyl-4-[N-(3-chlorophenyl)carbamoylmethyl]-1,3-thiazoyl-4-ine hydrobromide], with 96%; and `Br.Cc1ccc(NC(=O)Cc2csc(=Nc3cc(Cl)cc(Cl)c3)n2C)cc1` [Compound 4, 2-(3,5-dichlorophenylimino)-3-methyl-4-[N-(4-methylphenyl)carbamoylmethyl]-1,3-thiazol-4-ine hydrobromide], with 83%; and `Cl.Cn1c(CC(=O)Nc2ccccc2F)csc1=Nc1cccc(Br)c1` [Compound 153, 2-(3-bromophenylimino)-3-methyl-4-[N-(2-fluorophenyl)carbamoylmethyl]-1,3-thiazol-4-ine hydrochloride], with 99%. Still for that read-out and setting: then `Br.Cc1ccc(NC(=O)Cc2csc(=Nc3ccc(Oc4ccccc4)cc3)n2C)cc1` [Compound 13, 2-(4-phenoxyphenylimino)-3-methyl-4-[N-(4-methylphenyl)carbamoylmethyl]-1,3-thiazol-4-ine hydrobromide], with 99%; and `Br.Cc1ccc(NC(=O)Cc2csc(=Nc3cccc(C(F)(F)F)c3)n2C)cc1` [Compound 6, 2-(3-trifluoromethylphenylimino)-3-methyl-4-[N-(4-methylphenyl)carbamoylmethyl]-1,3-thiazol-4-ine hydrobromide], with 99%. Still for that read-out and setting: then `Br.Cn1c(CC(=O)Nc2ccc(Cl)cc2)csc1=Nc1ccc(Br)cc1` [Compound 317, 2-(4-bromophenylimino)-3-methyl-4-[N-(4-chlorophenyl)carbamoylmethyl]-1,3-thiazol-4-ine hydrobromide], with 100%; and `Br.CC(C)Oc1cccc(N=c2scc(CC(=O)Nc3ccc(Cl)cc3)n2C)c1` [Compound 303, 2-(3-isopropoxyphenylimino)-3-methyl-4-[N-(4-chlorophenyl)carbamoylmethyl]-1,3-thiazol-4-ine hydrobromide], with 100%; and `Cl.Cn1c(CC(=O)Nc2ccc(OC(F)(F)F)cc2)csc1=Nc1ccc(OC(F)(F)F)cc1` [Compound 108, 2-(4-trifluoromethoxyphenylimino)-3-methyl-4-[N-(4-trifluoromethoxyphenyl)carbamoylmethyl]-1,3-thiazol-4-ine hydrochloride], with 91%. With `Br.Cc1ccc(NC(=O)Cc2csc(=Nc3ccc(Cl)c(C(F)(F)F)c3)n2C)cc1` [Compound 53, 2-(4-chloro-3-trifluoromethylphenylimino)-3-methyl-4-[N-(4-methylphenyl)carbamoylmethyl]-1,3-thiazol-4-ine hydrobromide], the “Inhibiting Ratio (%) (at 250 ppm)” value turned out to be 99%.

Regarding `Br.Cn1c(CC(=O)Nc2ccccc2)csc1=Nc1ccc(Cl)cc1F` [Compound 42, 2-(4-chloro-2-fluorophenylimino)-3-methyl-4-(N-phenylcarbamoylmethyl)-1,3-thiazol-4-ine hydrobromide], the “Inhibiting Ratio (%) (at 250 ppm)” value was found to be 100%. For `Br.Cc1ccc(NC(=O)Cc2csc(=Nc3ccc([N+](=O)[O-])cc3)n2C)cc1` [Compound 16, 2-(4-nitrophenylimino)-3-methyl-4-[N-(4-methylphenyl)carbamoylmethyl]-1,3-thiazol-4-ine hydrobromide], the “Inhibiting Ratio (%) (at 250 ppm)” value amounted to 100%.

With `Br.Cn1c(CC(=O)Nc2ccc(Cl)cc2)csc1=Nc1ccc(Oc2ccccc2)cc1` [Compound 319, 2-(4-phenoxyphenylimino)-3-methyl-4-[N-(4-chlorophenyl)carbamoylmethyl]-1,3-thiazol-4-ine hydrobromide], the “Inhibiting Ratio (%) (at 250 ppm)” value is on record as 100%. In the case of `CCCCc1ccc(N=c2scc(CC(=O)Nc3ccc(C#N)cc3)n2C)cc1.Cl` [Compound 221, 2-[4-(n-butyl)phenylimino]-3-methyl-4-[N-(4-cyanophenyl)carbamoylmethyl]-4-thiazoline hydrochloride], the “Inhibiting Ratio (%) (at 250 ppm)” value stood at 87%.

In the case of `Cc1ccc(NC(=O)Cc2csc(=Nc3cc(OC(C)C)c(Cl)cc3F)n2C)cc1Cl.Cl` [Compound 257, 2-(4chloro-2-fluoro-5-isopropoxyphenylimino)-3-methyl-4-[N-(3-chloro-4-methylphenyl)carbamoylmethyl]-1,3-thiazol-4-ine hydrochloride], the “Inhibiting Ratio (%) (at 250 ppm)” value came out at 88%. For the molecule `Cc1ccc(NC(=O)Cc2csc(=Nc3cccc(F)c3)n2C)cc1Cl.Cl` [Compound 236, 2-(3-fluorophenylimino)-3-methyl-4-[N-(3-chloro-4-methylphenyl)carbamoylmethyl]-1,3-thiazol-4-ine hydrochloride], the “Inhibiting Ratio (%) (at 250 ppm)” value is recorded as 97%. As to `Br.Cc1ccc(NC(=O)Cc2csc(=Nc3cccc([N+](=O)[O-])c3)n2C)cc1` [Compound 15, 2-(3-nitrophenylimino)-3-methyl-4-[N-(4-methylphenyl)carbamoylmethyl]-1,3-thiazol-4-ine hydrobromide], the “Inhibiting Ratio (%) (at 250 ppm)” value is recorded as 91%.

Take `Cl.Cn1c(CC(=O)Nc2ccc(Br)cc2)csc1=Nc1cc(Cl)cc(Cl)c1` [Compound 138, 2-(3,5-dichlorophenylimino)-3-methyl-4-[N-(4-bromophenyl)carbamoylmethyl]-1,3-thiazol-4-ine hydrochloride]: the “Inhibiting Ratio (%) (at 250 ppm)” value stood at 95%. The same measure, in the same setting: the result for `Br.Cc1cc(Cl)ccc1N=c1scc(CC(=O)Nc2ccccc2)n1C` [Compound 25, 2-(4-chloro-2-methylphenylimino)-3-methyl-4-(N-phenylcarbamoylmethyl)-1,3-thiazol-4-ine hydrobromide] reads 100%.

Take “2-(2,4-difluorophenylimino)-3-methyl-4-[N-(methoxyphenyl)carbamoylmethyl]-1,3-thiazol-4-ine [Compound 340]”: the “Inhibiting Ratio (%) (at 250 ppm)” value stood at 94%. Turning to `Br.COc1ccc(NC(=O)Cc2csc(=Nc3ccccc3C)n2C)cc1` [Compound 312, 2-(2-methylphenylimino)-3-methyl-4-[N-(4-methoxyphenyl)carbamoylmethyl]-1,3-thiazol-4-ine hydrobromide], the “Inhibiting Ratio (%) (at 250 ppm)” value came out at 25%.

Consider `Br.Cc1cc(C)c(N=c2scc(CC(=O)Nc3ccccc3)n2C)c(C)c1` [Compound 321, 2-(2,4,6-trimethylphenylimino)-3-methyl-4-N-phenylcarbamoyl methyl-1,3-thiazol-4-ine hydrobromide], for which the “Inhibiting Ratio (%) (at 250 ppm)” value is given as 97%. In the case of `Br.Cn1c(CC(=O)Nc2cccc(Cl)c2)csc1=Nc1ccc(C#N)cc1` [Compound 57, 2-(4-cyanophenylimino)-3-methyl-4-[N-(3-chlorophenyl)carbamoylmethyl]-1,3-thiazol-4-ine hydrobromide], the “Inhibiting Ratio (%) (at 250 ppm)” value worked out at 96%. In the case of `Cl.Cn1c(CC(=O)Nc2ccc(Br)cc2)csc1=Nc1ccc(F)cc1` [Compound 136, 2-(4-fluorophenylimino)-3-methyl-4-[N-(4-bromophenyl)carbamoylmethyl]-1,3-thiazol-4-ine hydrochloride], the “Inhibiting Ratio (%) (at 250 ppm)” value was 97%. The same measure, in the same setting: the result for `Br.Cn1c(CC(=O)Nc2cccc(Cl)c2)csc1=Nc1cccc(C(F)(F)F)c1` [Compound 19, 2-(3-trifluoromethylphenylimino)-3-methyl-4-[N-(3-chlorophenyl)carbamoylmethyl]-1,3-thiazol-4-ine hydrobromide] reads 91%; that for `Br.COc1ccc(N=c2scc(CC(=O)Nc3ccc(OC)cc3)n2C)cc1` [Compound 307, 2-(4-methoxyphenylimino)-3-methyl-4-[N-(4-methoxyphenyl)carbamoylmethyl]-1,3-thiazol-4-ine hydrobromide], 100%.

Take `Br.Cc1ccccc1NC(=O)Cc1csc(=Nc2ccc(C#N)cc2)n1C` [Compound 324, 2-(4-cyanophenylimino)-3-methyl-4-[N-(2-methylphenyl)carbamoylmethyl]1,3-thiazol-4-ine hydrobromide]: the “Inhibiting Ratio (%) (at 250 ppm)” value is 90%. On the same count and under the same terms, then `Br.COc1ccc(NC(=O)Cc2csc(=Nc3ccc(F)cc3)n2C)cc1` [Compound 315, 2-(4-fluorophenylimino)-3-methyl-4-[N-(4-methoxyphenyl)carbamoylmethyl]-1,3-thiazol-4-ine hydrobromide], with 97%; and `CCCCc1ccc(N=c2scc(CC(=O)Nc3ccc(Cl)cc3)n2C)cc1.Cl` [Compound 124, 2-[4-(n-butyl)phenylimino]-3-methyl-4-[N-(4-chlorophenyl)carbamoylmethyl]-1,3-thiazol-4-ine hydrochloride], with 93%. `Br.COc1ccc(NC(=O)Cc2csc(=Nc3cccc(C)c3)n2C)cc1` [Compound 328, 2-(3-methylphenylimino)-3-methyl-4-[N-(4-methoxyphenyl)carbamoylmethyl]-1,3-thiazol-4-ine hydrobromide]: the “Inhibiting Ratio (%) (at 250 ppm)” value stood at 97%.

The same assay, now with this note: hydrobromide.
Consider `Br.Cc1cc(Cl)ccc1N=c1scc(CC(=O)Nc2cccc(Cl)c2)n1C` [Compound 61, 2-(4-chloro-2-methylphenylimino)-3-methyl-4-[N-(3-chlorophenyl)carbamoylmethyl]-1,3-thiazol-4-ine hydrobromide], for which the “Inhibiting Ratio (%) (at 250 ppm)” value amounted to 100%.
